Like-named read-outs stand apart in the source and are kept apart here.
What was measured:
VCAM-1 = assay: Inhibitory effect on TNF-α-induced expression of VCAM-1 in HUVECs; format: cell-based; conditions: Homo sapiens, HUVEC, read-out: Inhibitory effect (IC50) on CAM-1 expression
Experimental: (§1) Inhibitory effect on expression of VCAM-1 and ELAM-1 in human umbilical vein-derived endothelial cells (HUVECs)
(§2) HUVECs were suspended in 199 medium containing 20% FCS, 20 μg/ml endothelial cell growth factor derived from bovine brain, and 100 μg/ml heparin, plated into 96-well microculture plates coated with collagen, and cultured at 37° C. in 5% CO2. When cells were grown to confluence, the cells received tumour necrosis factor (TNF)-α (20 U/ml for VCAM-1 expression, 100 U/ml for ELAM-1 expression) and cultured for 5 hr. After the cells were washed once with 199 medium, mouse anti-human VCAM-1 monoclonal antibody (2 μg/ml) or rat anti-human ELAM-1 monoclonal antibody (2 μg/ml) was added, and the cells were incubated for 1 hr at room temperature. After the cells were washed twice, peroxidase-conjugated anti-mouse immunoglobulin antibody or anti-rat immunoglobulin antibody was added, and the cells were incubated for 1 hr at room temperature. After the cells were washed 3 times, 2,2'-azino-bis(3-ethylbenzothiazolone-6-sulfonic acid) was added. After the plates were stood for 15 min at room temperature, absorbance at 405 nm with a reference wave length of 490 nm was measured with a 96-well microplate reader and was regarded as a indicator of VCAM-1 or ELAM-1 expression.

[1] = test system: lipopolysaccharide (LPS)-induced adhesion of leukocytes; assay: Effect on lipopolysaccharide (LPS)-induced adhesion of leukocytes; format: in vivo, BALB/c mice; conditions: 6 hr after LPS
Description: Effect on lipopolysaccharide (LPS)-induced adhesion of leukocytes
It has been reported that, by the administration of LPS to mice, an adhesion molecule, Mac-1-dependent leukocyte adhesion is induced, the leukocytes infiltrate into lung, liver and so on, and in result the number of peripheral blood leukocytes reduces (Morisaki et al., Clin. Immunol. Immunopathol., 61, 365-375, 1991). The effect on LPS-induced leukocyte adhesion was investigated by taking the reduction of peripheral blood leukocytes as an indicator of leukocyte adhesion.
LPS solution (50 ng/ml in saline, 0,5 ml/mouse) was injected into peritoneal cavity of BALB/c mice on day 0. Six hr after the LPS injection, the number of peripheral blood leukocytes was counted with an automatic blood cell counter. Test compounds were suspended in 0.5% hydroxypropylmethylcellulose solution and administered p.o. (0.1 ml/10 g body weight) on days -4 to 0.

CD11b = assay: Effect on CD11b expression in human histiocytic leukemia cell line, U937 cells (PDB-induced); format: cell-based; conditions: U-937, 72 h, read-out: Inhibitory effect on CD11b expression (IC50)
Experimental: Effect on CD11b expression human histiocytic leukemia cell line, U937 cells
Effect on the expression of CD11b antigen, which is the α chain of an adhesion molecule, Mac-1 expressing on the surface of leukocytgic cells, was investigated. U937 cells were suspended in RPMI1640 medium containing 20% fetal calf serum (FCS), plated with phorbol 12,13-dibutyrate (PDB, 10 ng/ml) into 96-well filtration plates, and cultured for 3 days at 37° C. in 5% CO2. After the cells were washed once with RPMI1640 medium, rat anti-human CD11b antibody (2 μg/ml) was added to each well and the plates were incubated for 1 hr on ice. After the cell were washed twice, peroxidase-conjugated anti-rat immunoglobulin antibody (1 μg/ml) was added, and the cells were incubated for 1 hr on ice. After the cells were washed 3 times, substrate for peroxidase (o-phenylenediamine) was added. After the plates were stood for 15 min at room temperature, absorbance at 490 nm was measured with a 96-well microplate reader and was regarded as a indicator of CD11b antigen expression.

[2] = test system: thioglycollate (TG) medium-induced infiltration of leukocytes; assay: Effect on thioglycollate (TG) medium-induced infiltration of leukocytes; format: in vivo, BALB/c mice; conditions: TG medium 1 ml, day 4
Experimental: Effect on thioglycollate (TG) medium-induced infiltration of leukocytes
One ml of TG medium was injected into peritoneal cavity of BALB/c mice on day 0. On day 4, leukocytes infiltrating into the peritoneal cavity were collected with 3 ml of phosphatebuffered saline containing 0.02% EDTA and the density of leukocytes (cells/ml) was counted with an automatic blood cell counter. Total number of leukocytes (X) was calculated from the density of leukocytes (A) with the following formula.
Test compounds were suspended in 0.5% hydroxypropylmethyl-cellulose solution and administered p.o. (0.1 ml/10 g body weight) on days 0 to 3.

[3] = test system: oxazolone-induced ear edema; assay: Effect on oxazolone-induced ear edema in mice; format: in vivo; conditions: sensitized mice, 24 hr after challenge
Experimental: Effect on oxazolone-induced ear edema in mice.
Mice were sensitized by applying 50 μl of oxazolone solution (50 mg/ml in acetone) to their shaved abdomen on day 0. On day 7, 5 μl of oxazolone solution was applied to each surface of the right ear. After 24 hr (day 8), the right and left ears were cut off with a puncher of 6 mm in diameter and weighed with an electronic reading balance. The difference in weight between the oxazolone-treated ear (right) and untreated ear (left) was taken to reflect the extent of ear edema. Test compounds were suspended in 0.5% hydroxypropylmethycellulose solution and administered p.o. (0.1 ml/10 g body weight) on days 0 to 4 (once a day) and day 7 (twice a day).

ELAM-1 = assay: Inhibitory effect on TNF-α-induced expression of ELAM-1 in HUVECs; format: cell-based; conditions: Homo sapiens, HUVEC, read-out: Inhibitory effect (IC50) on ELAM-1 expression
Experimental: as §1, §2

glomerulonephritis = assay: Effect on glomerulonephritis in mice (anti-GBM antiserum); format: in vivo, female C57BL/6 mice; conditions: 12 days after anti-GBM antiserum, 0-5 points
Experimental: Effect on glomerulonephritis in mice
Rabbit immunoglobulin G solution (4 mg/ml in saline) was mixed with Freund's complete adjuvant at a ratio of 1:1 and the emulsion was prepared. The emulsion was injected into peritoneal cavity of female C57BL/6 mice (0.25 ml/mouse). After 5 days, rabbit anti-mouse glomerular basement membrane (GBM) antiserum obtained by the method of Nagai et al. (Japan. J. Pharmacol., 32, 1117, 1982) was administered i.v. (0.08 ml/mouse). […] Test compounds were suspended in 0.5% hydroxypropylmethylcellulose (HPMC) solution and administered p.o. (0.1 ml/10 g body weight) for 13 days beginning on the day of anti-GBM ant-serum injection.

TNBS-induced colitis = assay: Effect on TNBS-induced colitis model in rats (intrarectal administration); format: in vivo, SD rats; conditions: 7 days
Experimental: Effect on trinitrobenzenesufonec acid (TNBS)-induced colitis model in rats.
Colitis was induced by intrarectal injection of TNBS solution (60 mg/ml in 50% EtOH, 500 μl/rat) to SD rats. Seven days later, rats were sacrificed, and large intestine (8 cm from anus) was cut off and weighed. Myeloperoxidase (MPO) activity in the intestinal tissue was measured as follows and taken as an indicator of leukocyte infiltration: the intestinal tissue was homogenized and a cycle of freeze-thawing of the tissue was repeated 3 times. The supernatant obtained by centrifugation was assayed for MPO activity with substrate for peroxidase (o-phenylenediamine). MPO activity in the supernatant was calculated with the commercial MPO as a standard. The increases in intestinal weight and MPO activity as described above were taken as indicators of colitis. Test compounds were suspended in 0.5% hydroxypropylmethylcellulose solution and administered intrarectally (o.2 ml/rat) for 5 days beginning on the day of TNBS injection.

[4] = test system: antigen induced Eosinophils accumulation into lungs; assay: Effect on antigen induced eosinophils accumulation into lungs in actively sensitized guinea pigs; format: in vivo, male Dunkin-Hartley guinea pigs; conditions: 30 mg/kg p.o., BALF 24 h after antigen exposure
Experimental: Effect on antigen induced Eosinophils accumulation into lungs in actively sensitized guinea pigs
Male Dunkin-Hartley guinea pigs (4W, Japan SLC, Inc.) were used throughout this study.
Sensitized animals were orally administered (p.o.) with compound or solvent (0.5% hydroxymethylcellulose) 30 min. before final sensitization, 30 min. before antigen exposure and 4.5 h after antigen exposure.
Egg albumin (EA, 10 μg) was added to AI(OH)3 (10 mg) in sterile physiological saline (0.5 ml) and mixed in a blender. This mixture was injected intraperitoneally into recipients. And after 14 days and 21 days, the procedure was repeated. Seven days after the final sensitization procedure, Mepyramine 10 mg/kg was injected intraperitoneally into the sensitized animals. After 30 min., the animals were exposed to aerosol of 1% EA in sterile physiological saline for 5 min.
24 h after antigen exposure, the animals were killed by exsanguination and tracheae were cannulated. And the lungs were lavaged three times with 10 ml of sterile physiological saline. Lavage fluid (BALF) was centrifuged (800 rpm for 10 min. at 4° C.) and the cell pellet was resuspended in 10 ml of sterile physilolgical saline and total cell numbers in BALF were counted in a hemocytometer (MEK 4200, Nihon-kohden, Ltd.). Differential cell counts were made from centrifuged preparations stained with May-Giemsa stain.

Compound	Total number of leukocytes (mean ± S.D.) ([2]; 0.03 mg/kg/day p.o.)	Total number of leukocytes (mean ± S.D.) ([2]; 0.1 mg/kg/day p.o.)	Total number of leukocytes (mean ± S.D.) ([2]; 0.3 mg/kg/day p.o.)	Increase in ear weight (mean ± S.D.) ([3]; 1 mg/kg p.o.) [mg]	Score (mean ± S.D.) of protein level in urine (glomerulonephritis; 1 mg/kg/day p.o.)	Score (mean ± S.D.) of protein level in urine (glomerulonephritis; 3 mg/kg/day p.o.)	Intestinal weight (mean ± S.D.) (TNBS-induced colitis; 0.01 mg/site intrarectally) [mg]	MPO activity (mean ± S.D.) (TNBS-induced colitis; 0.01 mg/site intrarectally)	Intestinal weight (mean ± S.D.) (TNBS-induced colitis; 0.1 mg/site intrarectally) [mg]	MPO activity (mean ± S.D.) (TNBS-induced colitis; 0.1 mg/site intrarectally) [U/ml]	Intestinal weight (mean ± S.D.) (TNBS-induced colitis; 1 mg/site intrarectally) [mg]	MPO activity (mean ± S.D.) (TNBS-induced colitis; 1 mg/site intrarectally) [U/ml]	further results
Cc1sc2c(c1C)C(c1ccc(Cl)cc1)=N[C@@H](CC(=O)Nc1cccnc1)c1nnc(C)n1-2.Cl [Example 5, (S)-N-(3-pyridyl)-4-(4-chlorophenyl)-2,3,9-trimethyl-6H-thieno[3,2-f][1,2,4]triazolo[4,3-a][1,4]diazepine-6-acetamide hydrochloride]	1221 ± 239 × 10^4	990 ± 327 × 10^4	596 ± 165 × 10^4	15.2 ± 0.8	3.44 ± 0.88	2.22 ± 0.44	–	–	–	–	–	–	IC50 (VCAM-1; 5 h): 4.5 nM; Number of peripheral blood leukocytes (mean ± S.D.) ([1]; 1 mg/kg/day p.o.): 46 ± 8 × 100/μl; Number of peripheral blood leukocytes (mean ± S.D.) ([1]; 3 mg/kg/day p.o.): 69 ± 18 × 100/μl; Number of peripheral blood leukocytes (mean ± S.D.) ([1]; 10 mg/kg/day p.o.): 103 ± 16 × 100/μl; IC50 (CD11b): 260 nM; Increase in ear weight (mean ± S.D.) ([3]; 3 mg/kg p.o.): 14.0 ± 0.6 mg; Increase in ear weight (mean ± S.D.) ([3]; 10 mg/kg p.o.): 13.3 ± 0.5 mg; IC50 (ELAM-1; 5 h): 14 nM
Cc1sc2c(c1C)C(c1ccc(Cl)cc1)=N[C@@H](CC(=O)Nc1ccc(O)cc1)c1nnc(C)n1-2 [Example 3, (S)-N-(4-hydroxyphenyl)-4-(4-chlorophenyl)-2,3,9-trimethyl-6H-thieno[3,2-f][1,2,4]triazolo[4,3-a][1,4]diazepine-6-acetamide]	–	–	–	–	–	–	501.5 ± 78.3	0.716 ± 0.158 U/ml	472.0 ± 43.4	0.654 ± 0.109	460.8 ± 52.3	0.676 ± 0.172	–
Cc1sc2c(c1C)C(c1ccc(Cl)cc1)=N[C@@H](CC(=O)Nc1ccc(N)cc1)c1nnc(C)n1-2 [Example 4, (S)-N-(4-aminophenyl)-4-(4-chlorophenyl)-2,3,9-trimethyl-6H-thieno[3,2-f][1,2,4]triazolo[4,3-a][1,4]diazepine-6-acetamide]	–	–	–	–	–	–	490.8 ± 89.9	0.703 ± 0,313 U/ml	488.1 ± 24.0	0.511 ± 0.103	511.8 ± 98.5	0.488 ± 0.103	–
Cc1sc2c(c1C)C(c1ccc(Cl)cc1)=N[C@@H](CC(=O)NCCO)c1nnc(C)n1-2 [Example 2, (S)-N-(2-hydroxyethyl)-4-(4-chlorophenyl)-2,3,9-trimethyl-6H-thieno[3,2-f][1,2,4]triazolo[4,3-a][1,4]diazepine-6-acetamide 1/4 hydrate]	1064 ± 359 × 10^4	594 ± 302 × 10^4	570 ± 203 × 10^4	14.2 ± 0.4	3.25 ± 0.16	2.44 ± 0.53	–	–	–	–	–	–	IC50 (VCAM-1; HUVECs, TNF-α 20 U/ml, 5 hr): 37 nM; IC50 (CD11b; U937 cells, PDB 10 ng/ml, 3 days): 150 nM; Number of eosinophils [4]: 11.8 ± 3.8 × 10^6; Increase in ear weight (mean ± S.D.) ([3]; 0.3 mg/kg p.o.): 14.3 ± 1.5 mg; IC50 (ELAM-1; HUVECs, TNF-α 100 U/ml, 5 hr): 79 nM

From US5712274A, “Thienotriazolodiazepine compounds and their pharmaceutical use” (Yoshitomi Pharmaceutical Industries, Ltd., priority 1995, dated 1998)
